In one data set the target is T1, AOX (alcohol oxidase) (Komagataella phaffii, UniProt P04842).
T1 sequence (P04842 1-663): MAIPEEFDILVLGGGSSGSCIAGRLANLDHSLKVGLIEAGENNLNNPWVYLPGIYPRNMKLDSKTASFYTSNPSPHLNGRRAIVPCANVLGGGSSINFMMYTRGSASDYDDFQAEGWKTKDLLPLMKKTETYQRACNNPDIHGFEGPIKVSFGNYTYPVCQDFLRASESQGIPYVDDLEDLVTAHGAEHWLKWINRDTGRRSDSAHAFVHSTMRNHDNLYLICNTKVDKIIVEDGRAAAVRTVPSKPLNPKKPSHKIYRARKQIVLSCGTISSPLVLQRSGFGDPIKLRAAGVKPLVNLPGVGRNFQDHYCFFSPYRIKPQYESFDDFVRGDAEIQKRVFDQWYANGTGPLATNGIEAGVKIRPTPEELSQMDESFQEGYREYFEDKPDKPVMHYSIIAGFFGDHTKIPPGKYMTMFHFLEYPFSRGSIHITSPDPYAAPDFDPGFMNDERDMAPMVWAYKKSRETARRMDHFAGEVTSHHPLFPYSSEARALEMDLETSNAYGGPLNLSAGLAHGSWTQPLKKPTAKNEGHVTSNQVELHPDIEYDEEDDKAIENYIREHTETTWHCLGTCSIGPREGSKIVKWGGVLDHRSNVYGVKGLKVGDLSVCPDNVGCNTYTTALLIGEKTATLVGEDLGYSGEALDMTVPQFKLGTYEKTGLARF
It is filed as biochemical. As to conditions: for Relative activity / Vmax: pH 7.0, 100 mM MOPS-buffer; for Relative activity: ethanol = 100; for Vmax: compound as substrate. The text has this: In the AOX approach cofactor regeneration is not required. The reaction is further driven by the Catalase-catalyzed decomposition of hydrogen peroxide. […]
The enzyme was obtained from commercially available from Sigma Aldrich.
Reaction followed […] preference of one enantiomer over the other as substrate, as defined by the division of the specificity constants. The specificity constant is defined as kcat/Km.

Data set [1] deals with HLADH (Horse Liver Alcohol Dehydrogenase). Put plainly: Kinetic constants for HLADH, spectrophotometric assay of NADH formation at 340 nm. As to conditions: for Vmax / Relative activity / Km: pH 9.1, 100 mM CHES-buffer; for Vmax / Km: compound as substrate; for Relative activity: ethanol = 100; for E-value: pH 9.1, preference of one enantiomer over the other, ratio of specificity constants kcat/Km. It is filed as biochemical, Equus caballus. The text has this: In the HLADH approach cofactor regeneration is accomplished by the use of vinyl acetate. Vinyl acetate rapidly hydrolyzes at pH 9.1, decomposing into acetic acid and acetic aldehyde. The aldehyde can be reduced by HLADH into ethanol, thereby forming NAD^+ from NADH. Unreacted acetic aldehyde can be removed by bubbling N2 after deactivating the enzyme with EDTA or H2O2. For the alcohol dehydrogenase HLADH the reaction was spectrophotometrically followed by the formation of NADH at 340 nm. Different concentrations of the various amino alcohols were used to obtain the Michaelis-Menten kinetic constants.
This reaction was performed at pH 9.1. The enzyme was obtained from commercially available from Sigma Aldrich.
Reaction catalysed by HLADH was followed spectrophotometrically at 340 nm, by the formation of NADH.

Substrate in data set [2]: CCO
Put plainly: purified protein, by the assay type. As to conditions: other: AOX, pH 7.0, 100 mM MOPS-buffer, compound as substrate.

Molecule `CC(O)CN` (racemic) [1-Amino-propan-2-ol (rac), 1-Amino-propan-2-ol] had a Relative activity on AOX (alcohol oxidase) of 0%. For the same molecule, in data set [1], the Vmax came out at 0 µmol/min/mg and the Relative activity was determined as 0%.
Turning to `NCC(O)c1ccccc1` (stereo not drawn) [2-Amino-1-phenyl ethanol], the “Catalysis of the reaction and appearance of aldehyde” value at AOX (alcohol oxidase) (ABTS replaced by pyrogallol or purpald, rates not reproducible) is “the enzyme was catalysing the reaction and the appearance of aldehyde”.
`NCCO` [2-Amino-ethanol]: on AOX (alcohol oxidase), the Vmax result is “Very low” and the Relative activity is about 0%. Besides, in data set [1], the Vmax is under 0.005 µmol/min/mg and the Relative activity was about 0%.
Turning to `NCCCO` [3-Amino-propan-1-ol], on AOX (alcohol oxidase), the Vmax amounted to 0.021 µmol/min/mg and the Relative activity came to 0.18%. In data set [1], the Km was 13 mM, the maximum rate (Vmax) is 0.17 µmol/min/mg and the Relative activity is on record as 11%.
The molecule `CCO` [Ethanol, reference compound] returned a Relative activity at AOX (alcohol oxidase) of 100%. Also, in data set [1], the Km worked out at 0.6 mM, the maximal velocity (Vmax) turned out to be 1.5 µmol/min/mg and the Relative activity came to 100%.
As to `NC[C@H](O)c1ccccc1` [R-2-Amino-1-phenyl-ethanol], in data set [1], the maximal velocity (Vmax) is under 0.002 µmol/min/mg, the Relative activity was about 0% and the E-value was over 100.
Consider `C[C@@H](N)CO` [R-2-Amino-propan-1-ol], for which, at AOX (alcohol oxidase), the Vmax was found to be 0.10 µmol/min/mg and the Relative activity was determined as 0.88%. Further, at AOX (alcohol oxidase) (pH 7.0, preference of one enantiomer over the other, ratio of specificity constants kcat/Km), the E-value was found to be 3.6. Besides, in data set [1], the maximum rate (Vmax) is under 0.0007 µmol/min/mg, the Relative activity is about 0% and the E-value was over 300.
Regarding `NC[C@@H](O)c1ccccc1` [S-2-Amino-1-phenyl-ethanol], in data set [1], the Michaelis-Menten constant (Km) turned out to be 6.2 mM, the maximal velocity (Vmax) worked out at 0.21 µmol/min/mg and the Relative activity is recorded as 14%.
Regarding `C[C@H](N)CO` [S-2-Amino-propan-1-ol], on AOX (alcohol oxidase), the Vmax was determined as 0.37 µmol/min/mg and the Relative activity was 3.2%. Besides, in data set [1], the Km was 6.3 mM, the Vmax is 0.21 µmol/min/mg and the Relative activity amounted to 14%.

B1: AOX (alcohol oxidase) (Komagataella phaffii GS115) (protein)
chain: T1 sequence (P04842 1-663)
As to B1, in data set [2], the Km is recorded as 1.3 mM and the Vmax was found to be 12 µmol/min/mg.

(Values after patent US9085786B2, “Process for the production of polyamines” (BASF SE, priority 2009, dated 2015).)
